According to patent US4767749A, “Ester of (triarylphosphoranylidene)carbamic acid having diuretic and ability to lower plasma renin properties” (American Cyanamid Company, priority 1986, dated 1988):
Counter-ions that a name gives are not always drawn.

tested on: spontaneously hypertensive rats (SHR); assay: Diuretic activity in spontaneously hypertensive rats; type: in vivo, male spontaneously hypertensive rats (Okamoto strain); details: 100 mg/kg by gavage with 0.9% sodium chloride loading 25 ml/kg; 0-5 hour urine
Procedure: The diuretic activity of the compounds of this invention was also determined according to the method of Chan, P. S. and Poorvin, D., Sequential method for combined screening antihypertensive and diuretic agents in the same spontaneously hypertensive rat. Clinical and Experimental Hypertension, 1(6), 817-830 (1979).
Male spontaneously hypertensive rats (SHR) of Okamoto strain, 16 weeks old, Taconic Farms Inc. were used in the test. These rats were kept on Purina laboratory chow and tap water ad libitum for 8 weeks before use. One male adult rat (about 300 g) was dosed by gavage with a test compound at 100 mg/kg together with 0.9% sodium chloride loading at 25 ml/kg at zero hour. The test compound was suspended in 3% preboiled starch at 50 mg/ml. The rat was put in a metabolism cage. The 0-5 hour urine was collected and urinary sodium and potassium were determined using a Beckman Astra 4. The effects of representative compounds of the invention according to this test appear in Table III expressed in milliequivalents (mEQ) of urinary sodium and potassium excreted.

Question: `Cc1ccccc1P(=N)(c1ccccc1)c1ccccc1` [(2-Methylphenyl)diphenylphosphinimide sulfate] was tested. Which “Potassium (urinary excretion)” value did it give?
Answer: 0.68 mEQ/5 Hours

Question: What about the “Sodium (urinary excretion)” value of the same compound?
Answer: 1.88 mEQ/5 Hours

Question: And the “Volume (urine)” value?
Answer: 16.3 mL

Question: With `N=P(c1ccccc1)(c1ccccc1)c1ccccc1` [Triphenylphosphinimide sulfate] as the compound, how does the “Potassium (urinary excretion)” value read?
Answer: 0.65 mEQ/5 Hours

Question: What about the “Sodium (urinary excretion)” value of the same compound?
Answer: 1.25 mEQ/5 Hours

Question: What about the “Volume (urine)” value of the same compound?
Answer: 12.0 mL

Question: For `CCOC(=O)N=P(c1ccccc1)(c1ccccc1)c1cccc(Cl)c1` [[(3-chlorophenyl)diphenylphosphoranylidene]carbamic acid, ethyl ester], which “Potassium (urinary excretion)” value is on record?
Answer: 0.64 mEQ/5 Hours

Question: And the “Sodium (urinary excretion)” value?
Answer: 2.32 mEQ/5 Hours

Question: What about the “Volume (urine)” value of the same compound?
Answer: 23.8 mL

Question: What does the source list for `CCOC(=O)N=P(c1ccccc1)(c1ccccc1)c1ccccc1Br` [[(2-bromophenyl)diphenylphosphoranylidene]carbamic acid, ethyl ester]?
Answer: Potassium (urinary excretion): 0.68 mEQ/5 Hours; Sodium (urinary excretion): 2.51 mEQ/5 Hours; Volume (urine): 22.5 mL

Question: Which “Potassium (urinary excretion)” value does the source give for `CC(OC(=O)N=P(c1ccccc1)(c1ccccc1)c1ccccc1)C1CC1` (stereo not drawn) [(triphenylphosphoranylidene)carbamic acid, 1-cyclopropylethyl ester] here?
Answer: 0.65 mEQ/5 Hours

Question: What about the “Sodium (urinary excretion)” value of the same compound?
Answer: 1.19 mEQ/5 Hours

Question: And the “Volume (urine)” value?
Answer: 12.0 mL

Question: With `CCOC(=O)N=P(c1ccccc1)(c1ccccc1)c1ccccc1OC` [[(2-Methoxyphenyl)diphenylphosphoranylidene]carbamic acid, ethyl ester] as the compound, how does the “Potassium (urinary excretion)” value read?
Answer: 0.97 mEQ/5 Hours

Question: What about the “Sodium (urinary excretion)” value of the same compound?
Answer: 1.31 mEQ/5 Hours

Question: What about the “Volume (urine)” value of the same compound?
Answer: 11.3 mL

Question: With `CCOC(=O)N=P(c1ccccc1)(c1ccccc1)c1cccc(Br)c1` [[(3-Bromophenyl)diphenylphosphoranylidene]carbamic acid, ethyl ester] as the compound, how does the “Potassium (urinary excretion)” value read?
Answer: 0.78 mEQ/5 Hours

Question: And the “Sodium (urinary excretion)” value?
Answer: 1.16 mEQ/5 Hours

Question: And the “Volume (urine)” value?
Answer: 12.4 mL

Question: How did the “Potassium (urinary excretion)” value turn out when `CCC1(OC(=O)N=P(c2ccccc2)(c2ccccc2)c2ccccc2)CCCC1` [(triphenylphosphoranylidene)carbamic acid, 1-ethylcyclopentyl ester] was run?
Answer: 1.01 mEQ/5 Hours

Question: What about the “Sodium (urinary excretion)” value of the same compound?
Answer: 1.34 mEQ/5 Hours

Question: And the “Volume (urine)” value?
Answer: 12.5 mL

Question: How did the “Potassium (urinary excretion)” value turn out when `CO[C@@H]1CCCC[C@H]1OC(=O)N=P(c1ccccc1)(c1ccccc1)c1ccccc1` (relative stereo) [(triphenylphosphoranylidene)carbamic acid, trans-2-methoxycyclohexyl ester] was run?
Answer: 0.67 mEQ/5 Hours

Question: And the “Sodium (urinary excretion)” value?
Answer: 1.45 mEQ/5 Hours

Question: What about the “Volume (urine)” value of the same compound?
Answer: 12.8 mL

Question: With `CC#CCOC(=O)N=P(c1ccccc1)(c1ccccc1)c1ccccc1` [(triphenylphosphoranylidene)carbamic acid, 2-butynyl ester] as the compound, how does the “Potassium (urinary excretion)” value read?
Answer: 0.57 mEQ/5 Hours

Question: What about the “Sodium (urinary excretion)” value of the same compound?
Answer: 1.15 mEQ/5 Hours

Question: What about the “Volume (urine)” value of the same compound?
Answer: 10.0 mL

Question: `O=C(N=P(c1ccccc1)(c1ccccc1)c1ccccc1C(F)(F)F)OC1CCOC1` (stereo not drawn) [[diphenyl[2-(trifluoromethyl)phenyl]phosphoranylidene]carbamic acid, tetrahydro-3-furanyl ester] was tested. Which “Potassium (urinary excretion)” value did it give?
Answer: 0.63 mEQ/5 Hours

Question: What about the “Sodium (urinary excretion)” value of the same compound?
Answer: 1.64 mEQ/5 Hours

Question: And the “Volume (urine)” value?
Answer: 16.3 mL

Question: `O=C(N=P(c1ccccc1)(c1ccccc1)c1ccccc1Cl)OC1CCOC1` (stereo not drawn) [[(2-chlorophenyl)diphenylphosphoranylidene]carbamic acid, tetrahydro-3-furanyl ester] was tested. Which “Potassium (urinary excretion)” value did it give?
Answer: 0.68 mEQ/5 Hours

Question: And the “Sodium (urinary excretion)” value?
Answer: 1.90 mEQ/5 Hours

Question: And the “Volume (urine)” value?
Answer: 20.0 mL

Question: How did the “Potassium (urinary excretion)” value turn out when `CCOC(=O)N=P(c1ccccc1)(c1ccccc1)c1cccc(F)c1` [[[(3-fluorophenyl)diphenylphosphoranylidene]carbamic acid, ethyl ester] was run?
Answer: 0.62 mEQ/5 Hours

Question: And the “Sodium (urinary excretion)” value?
Answer: 2.44 mEQ/5 Hours

Question: What about the “Volume (urine)” value of the same compound?
Answer: 24.0 mL

Question: How did the “Potassium (urinary excretion)” value turn out when `CCOC(=O)N=P(c1ccccc1)(c1ccccc1)c1cccc(Cl)c1Cl` [[(2,3-dichlorophenyl)diphenylphosphoranylidene]carbamic acid ethyl ester] was run?
Answer: 0.86 mEQ/5 Hours

Question: What about the “Sodium (urinary excretion)” value of the same compound?
Answer: 1.83 mEQ/5 Hours

Question: And the “Volume (urine)” value?
Answer: 14.3 mL

Question: For `CC(=O)CCCOC(=O)N=P(c1ccccc1)(c1ccccc1)c1ccccc1` [(triphenylphosphoranylidene)carbamic acid, 4-oxo-pentan-1-yl ester], which “Potassium (urinary excretion)” value is on record?
Answer: 0.58 mEQ/5 Hours

Question: What about the “Sodium (urinary excretion)” value of the same compound?
Answer: 1.16 mEQ/5 Hours

Question: What about the “Volume (urine)” value of the same compound?
Answer: 13.3 mL

Question: Which results are given for `Cc1ccccc1P(=N)(c1ccccc1)c1ccccc1C` [[Bis(2-methylphenyl)phenyl]phosphinimide sulfate]?
Answer: Potassium (urinary excretion): 0.88 mEQ/5 Hours; Sodium (urinary excretion): 1.44 mEQ/5 Hours; Volume (urine): 13.0 mL

Question: Which results are given for `O=C(N=P(c1ccccc1)(c1ccccc1)c1ccccc1)OCC1CC1` [(Triphenylphosphoranylidene)carbamic acid, cyclopropylmethyl ester]?
Answer: Potassium (urinary excretion): 0.57 mEQ/5 Hours; Sodium (urinary excretion): 2.00 mEQ/5 Hours; Volume (urine): 19.5 mL

Question: Which “Potassium (urinary excretion)” value does the source give for `CO[C@@H]1CCC[C@H]1OC(=O)N=P(c1ccccc1)(c1ccccc1)c1ccccc1` (relative stereo) [(triphenylphosphoranylidene)carbamic acid, trans-2-methoxycyclopentyl ester] here?
Answer: 0.72 mEQ/5 Hours

Question: And the “Sodium (urinary excretion)” value?
Answer: 1.83 mEQ/5 Hours

Question: And the “Volume (urine)” value?
Answer: 17.0 mL

Question: Which results are given for `CCOC(=O)N=P(c1ccccc1)(c1cccc(Cl)c1)c1cccc(Cl)c1` [[[bis(3-chlorophenyl)phenyl]phosphoranylidene]carbamic acid, ethyl ester]?
Answer: Potassium (urinary excretion): 0.89 mEQ/5 Hours; Sodium (urinary excretion): 1.84 mEQ/5 Hours; Volume (urine): 18.3 mL

Question: For `CCOC(=O)N=P(c1ccccc1)(c1ccccc1)c1ccccc1CC` [[(2-ethylphenyl)diphenylphosphoranylidene]carbamic acid, ethyl ester], which “Potassium (urinary excretion)” value is on record?
Answer: 0.78 mEQ/5 Hours

Question: And the “Sodium (urinary excretion)” value?
Answer: 2.07 mEQ/5 Hours

Question: What about the “Volume (urine)” value of the same compound?
Answer: 19.0 mL

Question: What does the source list for `CCOC(=O)N=P(c1ccccc1)(c1ccccc1)c1ccccc1F` [[Diphenyl(2-fluorophenyl)phosphoranylidene]carbamic acid, ethyl ester]?
Answer: Potassium (urinary excretion): 0.66 mEQ/5 Hours; Sodium (urinary excretion): 2.01 mEQ/5 Hours; Volume (urine): 19.8 mL

Question: With `O=C(N=P(c1ccccc1)(c1ccccc1)c1ccccc1)OC1CCc2ccccc21` (stereo not drawn) [(Triphenylphosphoranylidene)carbamic acid, 2,3-dihydro-1 --H--inden-1-yl ester] as the compound, how does the “Potassium (urinary excretion)” value read?
Answer: 0.87 mEQ/5 Hours

Question: What about the “Sodium (urinary excretion)” value of the same compound?
Answer: 1.41 mEQ/5 Hours

Question: And the “Volume (urine)” value?
Answer: 13.0 mL

Question: Which “Potassium (urinary excretion)” value does the source give for `COC1CCCCC1OC(=O)N=P(c1ccccc1)(c1ccccc1)c1ccccc1` (stereo not drawn) [(triphenylphosphoranylidene)carbamic acid, cis- and trans-2-methoxycyclohexyl ester] here?
Answer: 0.59 mEQ/5 Hours

Question: And the “Sodium (urinary excretion)” value?
Answer: 1.15 mEQ/5 Hours

Question: What about the “Volume (urine)” value of the same compound?
Answer: 11.3 mL

Question: Which “Potassium (urinary excretion)” value does the source give for `COC(=O)N=P(c1ccccc1)(c1ccccc1)c1ccccc1C` [[(2-methylphenyl)diphenylphosphoranylidene]carbamic acid, methyl ester] here?
Answer: 0.88 mEQ/5 Hours

Question: What about the “Sodium (urinary excretion)” value of the same compound?
Answer: 1.95 mEQ/5 Hours

Question: And the “Volume (urine)” value?
Answer: 18.3 mL

Question: For `C[C@@H]1CCC[C@H]1OC(=O)N=P(c1ccccc1)(c1ccccc1)c1ccccc1` (relative stereo) [(triphenylphosphoranylidene)carbamic acid, trans-2-methylcyclopentyl ester], which “Potassium (urinary excretion)” value is on record?
Answer: 0.68 mEQ/5 Hours

Question: And the “Sodium (urinary excretion)” value?
Answer: 1.55 mEQ/5 Hours

Question: And the “Volume (urine)” value?
Answer: 14.3 mL

Question: With `COC(=O)N=P(c1ccccc1)(c1ccccc1)c1cccc(Cl)c1` [[(3-chlorophenyl)diphenylphosphoranylidene]carbamic acid, methyl ester] as the compound, how does the “Potassium (urinary excretion)” value read?
Answer: 0.60 mEQ/5 Hours

Question: And the “Sodium (urinary excretion)” value?
Answer: 2.45 mEQ/5 Hours

Question: And the “Volume (urine)” value?
Answer: 23.0 mL

Question: For `CCOC(=O)N=P(c1ccccc1)(c1ccccc1)c1ccccc1C(C)C` [[[2-(1-Methylethyl)phenyl]diphenylphosphoranylidene]carbamic acid, ethyl ester], which “Potassium (urinary excretion)” value is on record?
Answer: 0.83 mEQ/5 Hours

Question: And the “Sodium (urinary excretion)” value?
Answer: 2.08 mEQ/5 Hours

Question: And the “Volume (urine)” value?
Answer: 18.8 mL

Question: How did the “Potassium (urinary excretion)” value turn out when `O=C(N=P(c1ccccc1)(c1ccccc1)c1ccccc1)OCC1CCC1` [(Triphenylphosphoranylidene)carbamic acid, cyclobutylmethyl ester] was run?
Answer: 0.60 mEQ/5 Hours

Question: What about the “Sodium (urinary excretion)” value of the same compound?
Answer: 1.47 mEQ/5 Hours

Question: And the “Volume (urine)” value?
Answer: 14.5 mL

Question: With `O=C(N=P(c1ccccc1)(c1ccccc1)c1ccccc1)OC1C=CCC1` (stereo not drawn) [(triphenylphosphoranylidene)carbamic acid, 2-cyclopenten-1-yl ester] as the compound, how does the “Potassium (urinary excretion)” value read?
Answer: 0.83 mEQ/5 Hours

Question: And the “Sodium (urinary excretion)” value?
Answer: 1.58 mEQ/5 Hours

Question: And the “Volume (urine)” value?
Answer: 15.5 mL

Question: For `C#CCOC(=O)N=P(c1ccccc1)(c1ccccc1)c1ccccc1` [(triphenylphosphoranylidene)carbamic acid, 2-propynyl ester], which “Potassium (urinary excretion)” value is on record?
Answer: 0.58 mEQ/5 Hours

Question: And the “Sodium (urinary excretion)” value?
Answer: 1.76 mEQ/5 Hours

Question: What about the “Volume (urine)” value of the same compound?
Answer: 15.5 mL

Question: `COC(=O)N=P(c1ccccc1)(c1ccccc1C)c1ccccc1C` [[Bis(2-methylphenyl)phenylphosphoranylidene]carbamic acid, methyl ester] was tested. Which “Potassium (urinary excretion)” value did it give?
Answer: 0.76 mEQ/5 Hours

Question: What about the “Sodium (urinary excretion)” value of the same compound?
Answer: 1.45 mEQ/5 Hours

Question: And the “Volume (urine)” value?
Answer: 13.5 mL
